# Test results: patent publication US20240383865A1, “HIGH-ENERGY-VIOLET-ABSORBING VINYLIC MONOMERS” (Alcon Inc., priority 2023, published 2024)
# How the values were obtained:
# Assay type in all cases: physicochemical
# [1] = Absorption edge of germanium photoinitiators
# [2] = Solubility of HEVL-absorbing vinylic monomers in 1-propanol
# Description: This example illustrates the correlation between the melting point and solubility of HEVL-absorbing vinylic monomers of
# As anticipated, solubility in 1-propanol is improved, reaching >4.0 mg/ml (Table 1).
# [3] = UV/visible absorption spectra of dilute solutions (40 ppm, 1 cm cuvette); conditions: for UV/visible absorption profiles of UV28 and UV35 compared: 40 ppm, FIG. 3
# [4] = Dissolution of benzotriazole monomer in lens formulations; conditions: for Dissolution in Lightstream formulation: formulations 6-1 (UV28) and 6-2 (UV35), mixing at room temperature then 40° C.; for Dissolution in thermally cured formulations: formulations 6-3 (UV28) and 6-4 (UV35), mixed at room temperature 1-2 hours
# Description: All formulations in the amount of 10 g are mixed at room temperature for 1-2 hours. Following initial mixing, Lightstream formulations (6-1 and 6-2) are mixed for an additional 1-2 hours at 40° C. […] Both benzotriazoles-UV28 and UV35 dissolve in thermally cured formulations (6-3 and 6-4). Room temperature and refrigerated (3° C.) conditions are tested.
smiles,measurement,setting,value
"C[CH2][Ge]([CH2]C)([C](=O)c1ccc(OC)cc1)[C](=O)c1ccc(OC)cc1 [BMBDE-Ge, Bis(4-methoxybenzoyl)diethylgermanium]",Absorption edge,[1],470 nm
"CCc1ccccc1[C](=O)[Ge]([C](=O)c1ccccc1CC)([C](=O)c1ccccc1CC)[C](=O)c1ccccc1CC [TEB-Ge, tetrakis(2-ethylbenzoyl)-germanium]",Absorption edge,[1],490 nm
"C=C(C)C(=O)OCCCOc1cc(-n2nc3ccc(Cl)cc3n2)c(O)c(C(C)(C)C)c1 [UV28, 2-{2′-Hydroxy-3′-tert-butyl-5′-[3′-methacryloyloxypropoxy]phenyl}-5-chloro-2H-benzotriazole, reference compound]",Solubility in PrOH,[2],1.5 mg/mL
same,Absorption Peak,[3]; 40 ppm in 1-propanol,364 nm
same,UV/visible absorption profiles of UV28 and UV35 compared,[3],equivalent
same,Dissolution in Lightstream formulation,[4],does not dissolve
same,Dissolution in thermally cured formulations,[4],dissolve
"C=C(C)C(=O)OCCOCCOc1cc(-n2nc3ccc(Cl)cc3n2)c(O)c(C(C)(C)C)c1 [UV35, 2-propenoic acid, 2-methyl-, 2-[2-[3-(5-chloro-2H-benzotriazol-2-yl)-5-(1,1-dimethylethyl)-4-hydroxyphenoxy]ethoxy]ethyl ester]",Solubility in PrOH,[2],>4.0 mg/mL
same,solubility,"[2]; organic solvent or mixture, read-out: Solubility in PrOH",> 4 mg/mL
same,UV/visible absorption profiles of UV28 and UV35 compared,[3],equivalent
same,Dissolution in Lightstream formulation,[4],dissolves completely
same,Dissolution in thermally cured formulations,[4],dissolve
